From US9207232B2, “Ceramide derivative and Golgi apparatus-labeling fluorescent probe using same” (National University Corporation Chiba University, priority 2011, dated 2015)
Several values for one entry are separate records, joined by “and”; a condition that tells them apart may be missing. Identical values can stand only once.

How the values were obtained:
CHO cells [1] = test: Evaluation of intracellular metabolism by TLC; type: in vitro ADME, hamster; settings: 10 μM
Protocol: (§1) Firstly, the CHO cells were seeded into each well of a 24-well plate at 2×10^4 cells/well, and cultured in a Ham's F12(+) medium at 37° C. for one day. After that, medium exchange to a medium in which 0.1% BSA and 10 mM HEPES are added into a Ham's F12(−) medium which is a serum-free medium was performed, and the culture was further performed at 37° C. for 18 hours, then into which the compound 9 (10 μM) was added. After the addition, the resultant mixture was cultured at 37° C. for 1, 2, 6, 24, or 48 hours, and subjected to an assay. Further, as a negative control, the same experiment was performed with the NBD-C6-ceramide. Herein, ceramide, sphingosine, and the like are contained in the serum, and the incorporation and metabolism of these substances are constantly in progress. Therefore, in this experiment, firstly, the cells were cultured for 18 hours in a serum-free medium, and the incorporation and metabolism of a serum-derived compound were decreased, then the test compound was added, and thus an experimental system was constructed such that the pure incorporation and metabolism of the test compound itself can be measured.
As the assay, firstly, the incorporation of the ceramide derivative (compound 9) into a cell was evaluated. Specifically, cells that had been cultured for a predetermined time in the presence of the compound were washed twice with HBSS (Hank's Balanced Salt Solution: pH 7.4) containing 0.1% BSA and 10 mM HEPES, and then using a cell scraper and 250 μL of HBSS, the cells were detached from the wells. Into the cell extract thus obtained, 500 μL of chloroform, 500 μL of methanol, and 250 μL of water were added, and the cell extract was prepared in two-layer form of an organic layer and an aqueous layer. Further, since the ceramide derivative and other major sphingolipids are compounds that migrate to the organic layer, the cell extract in two-layer form was centrifuged for 10 minutes under the conditions of 3000 rpm at 4° C., and thus only the organic layer was isolated.
On the other hand, as another assay, the metabolism of the ceramide derivative (compound 9) was evaluated. Specifically, 20 μL of the organic layer sample thus obtained above was spotted on a TLC plate, and developed with a development solvent (1-butanol:acetic acid:water=3:1:1), then the intracellular metabolism of the sample was evaluated by using an image analyzer (LAS1000).
Further, by using a free software (Image J), the abundance of each metabolite was converted into a numerical value. The results are shown in E) of FIG. 2 (NBD-C6-ceramide (negative control)), and F) of FIG. 2 (compound 9). In the meantime, the numerical value of each amount of C16-glucosylceramide-NBD-like molecules and C16-sphingomyelin-NBD-like molecules was determined from the mobility in the TLC.

[2] = test system: Golgi apparatus in CHO cells; settings: 30 minutes after addition, or two hours later when metabolized; J Cell Biol. 1985; cited from earlier work
[3] = test system: Golgi apparatus in CHO cells; test: Changes in localization to the Golgi apparatus over time (fluorescence observation); type: cell-based, hamster; settings: 1 μM, 1, 2, 6, 24 or 48 hours at 37° C.
Protocol: Subsequently, it was evaluated whether or not the localization of the compound 9 in the Golgi apparatus can be maintained over a long period of time. Specifically, by the method similar to that described above, the compound 9 or the NBD-C6-ceramide (negative control) (each of both is in 1 μM) was added, then the resultant mixture was cultured at 37° C. for 1, 2, 6, 24, or 48 hours, and the fluorescence (green) derived from the compound was observed.
The upper part of FIG. 4 is a set of pictures showing the results of the observation for the NBD-C6-ceramide (negative control), the pictures were taken by using a photomultiplier tube PMT:430. The middle part of FIG. 4 is a set of pictures showing the results of the observation for the compound 9, the pictures were taken by using a photomultiplier tube PMT:430. The lower part of FIG. 4 is a set of pictures showing the results of the observation for the compound. 9, the pictures were taken by using a photomultiplier tube PMT:500. At this point, the expression of “430” or “500” means detection sensitivity (size of the energy required to detect the emission derived from a compound), and the smaller the value, the higher the sensitivity. […]

cell = test: Staining of the Golgi apparatus with conventional probe (investigation by the present inventors); type: cell-based; settings: cytotoxic effect
Protocol: A NBD-C6-ceramide has a cytotoxic effect, therefore, kills a cell itself within 24 hours from the incorporation into the cell, and thus the cell observation cannot be continued anymore. Further, an endogenous ceramide is metabolized into a glucosylceramide by being added with an oligosaccharide in the Golgi apparatus, or metabolized into sphingomyelin by receiving the transfer of phosphocholine from phosphatidylcholine, as a result, the metabolite is sent to cell membrane and becomes a component of the cell membrane. The NBD-C6-ceramide is, in the same manner as in the endogenous ceramide, metabolized to glucosylceramide or sphingomyelin in the Golgi apparatus, and the metabolite is transported to cell membrane from the Golgi in a few hours, therefore, the continuous staining is also difficult in this respect.

CHO cells [4] = test: Evaluation of cytotoxicity (alteration of cell shape); type: cell-based, hamster; settings: 10 μM, serum-free medium, cultured one day
Protocol: As to the compound 9 synthesized in the above, the cytotoxicity was evaluated as the effect on the change in cell morphology.
As the cultured cells, cells obtained by the culture of CHO cells, which is a cell strain derived from the ovary of hamster, in a Ham's F12 medium were used.
Firstly, the CHO cells were seeded into each well of a 24-well plate at 2×10^4 cells/well, and cultured in a Ham's F12(+) medium at 37° C. for one day. After that, in order to eliminate the influence of ceramide, sphingosine, and the like, medium exchange to a medium in which 0.1% BSA and 10 mM HEPES are added into a Ham's F12(−) medium which is a serum-free medium was performed, and in the presence of the compound 9 (10 μM), the culture was further performed for one day. Further, as a negative control, the same experiment was performed with the a NBD-C6-ceramide described in Non Patent Literature 1.

CHO cells [5] = test: Evaluation of cytotoxicity (changes in cell number); type: cell-based, hamster; settings: 10 μM; for cell number after addition (24 hours) relative to before addition: before addition = 100%, no additives 170 ± 51%; for cell number after addition (24 hours): serum-free medium, before addition 12,600 cells/well
Protocol: Subsequently, as to the compound 9 synthesized in the above, the cytotoxicity was evaluated as the effect on the change in cell number.
Firstly, the CHO cells were seeded into each well of a 24-well plate at 1×10^4 cells/well, and cultured in a Ham's F12(+) medium at 37° C. for one day. The cell number one day after the culture was 1.26×10^4 cells/well. After that, medium exchange to a medium in which 0.1% BSA and 10 mM HEPES are added into a Ham's F12(−) medium which is a serum-free medium was performed, and in the presence of the compound 9 (10 μM), the culture was further performed for one day. Further, as a negative control, the same experiment was performed with the NBD-C6-ceramide described in Non Patent Literature 1. In addition, the same experiment was also performed for the case of no additives.

CHO cells [6] = test: Evaluation of incorporation into cell (fluorescence of organic layer extract); type: cell-based, hamster; settings: 10 μM, 1, 2, 6, 24 or 48 hours at 37° C.
Protocol: as §1, with “Herein, ceramide, sphingosine, and the like are contained in the serum, and the incorporation and metabolism of these substances are constantly in progress.” left out
As the assay, firstly, the incorporation of the ceramide derivative (compound 9) into a cell was evaluated. […]
Subsequently, the obtained organic layer sample was added into a 96-well plate, and the fluorescence emission of the ceramide derivative was detected by using an image analyzer (LAS1000, manufactured by FUJIFILM Corporation). […]

[7] = test system: Golgi apparatus in CHO cells; test: Evaluation of localization to the Golgi apparatus (co-staining with BODIPY-TR-Ceramide, confocal laser scanning microscope); type: cell-based, hamster; settings: 1 μM, 1.5 hours, then BODIPY-TR-Ceramide 5 μM 30 minutes
Protocol: It was evaluated whether or not the localization of the compound 9 into a cell is really due to the localization to the Golgi apparatus. Specifically, BODIPY-TR-Ceramide (Cat D-7540 Red manufactured by Molecular Probes), which is another Golgi marker known to be difficult to be metabolized, was added together with the compound 9 into a cell, and the observation was performed by using a confocal laser scanning microscope.
Firstly, the CHO cells were seeded into each well of a 24-well plate at 0.5×10^4 cells/well, and cultured in a Ham's F12(+) medium at 37° C. for two days. […] After completion of the culture, the cells were washed twice in the same manner as described above, and then the fluorescence emission from the cells was observed. […] In addition, the time course of the cell culture and compound addition is the one recommended by data sheets or previous reports as the time course in which BODIPY-TR-Ceramide can be detected more sensitively. The observation was performed by using a confocal laser scanning microscope, and the measurement of the fluorescence emission from the BODIPY-TR-Ceramide was performed at the maximum excitation wavelength of 598 nm, and the maximum fluorescence wavelength of 617 nm, to measure the “red”. […]

Compound | fraction that became a metabolite in 6 hours (CHO cells [1]) | amount of compound after metabolism in 24 hours (CHO cells [1]; 24 hours) | fraction metabolized in 48 hours (CHO cells [1]; 48 hours) | retention in the Golgi apparatus after addition into a cell [2] | fluorescence (emission) intensity in cells with the lapse of time [3] | time from incorporation into the cell until the cell is killed (cell) | alteration of cell shape (roundation) (CHO cells [4]) | cell number after addition (24 hours) relative to before addition (CHO cells [5]) | cell number after addition (24 hours) (CHO cells [5]) | amount incorporated into a cell with the lapse of time (CHO cells [6]) | co-localization with Golgi marker BODIPY-TR-Ceramide [7] | fraction remaining as it is without being metabolized in 48 hours (CHO cells [1]; 48 hours) | cell number after addition (24 hours) relative to before addition (CHO cells [5]; listed as Acetyl-C16-ceramide-NBD)
CCCCCCCCCCCCC/C=C/[C@@H](O)[C@H](CO)NC(=O)CCCCCNc1ccc([N+](=O)[O-])c2nonc12 [NBD-C6-ceramide] | 30% | decreased by half | ~90% | remains in the Golgi apparatus | attenuated with the lapse of time | ≤ 24 h | the alteration of cell shapge (roundation) was observed | 77% and 77 ± 2% | 9,690 ± 260 cells/well | decreased with the lapse of time | co-localized with the BODIPY-TR-Ceramide | – | –
CCCCCCCCCCCCCCCC(=O)N[C@@H](COC(C)=O)[C@H](O)/C=C/CCCCCCCCCNc1ccc([N+](=O)[O-])c2nonc12 [compound 9, (2S,3R)-(E)-3-hydroxy-14-((7-nitrobenzo[c][1,2,5]oxadiazole-4-yl)amino)-2-palmitamide tetradec-4-en-1-yl acetate] | around 10% | – | – | – | gradually increased with the lapse of time | – | the roundation was not observed | 159% | 20,000 ± 4100 cells/well | increased with the lapse of time | co-localized with the BODIPY-TR-Ceramide | ≥ 70% | 159 ± 33%
